These results are taken from patent publication US8512734B2, “Biocompatible coating of medical devices” (Katholieke Universiteit Leuven, K.U.Leuven R&D, priority 2004, dated 2013).

This data set in a line: In-vitro release of β-estradiol from loaded zeogrid in simulated body fluid (HPLC). In kind it is physicochemical. Particulars: 10 mg loaded zeogrid in 20 ml SBF, room temperature, continuous stirring. As to the method:
Loading of the zeogrid sample with β-estradiol proceeds as follows. 50 mg β-estradiol is dissolved in 100 ml methylenechloride. 500 mg of zeogrid is suspended in the solution. Everything is stirred during 24 hours in a closed container. After 24 hours, the container is opened and the methylenechloride is evaporated at room temperature. The resulting powder is further dried and kept during 24 hours under reduced pressure to remove the solvent.
Release of β-estradiol from zeogrids. Simulated body fluid (SBF) was used as dissolution medium. SBF was prepared by first dissolving 1% SLS (Sodium lauryl sulphate) and 0.90% NaCl in distilled water. The solution was mixed with ethanol in a volume ratio solution:ethanol of 24:1.
The in-vitro release experiments were carried out at room temperature by dispersing 10 mg quantities of the loaded zeogrid into 20 ml quantities of SBF. In order to avoid limitations of the delivery rate by external diffusion constraints, continuous stirring is maintained. The release profile was obtained by measuring drug concentration in the fluid after different times by means of HPLC.

With `C[C@]12CC[C@@H]3c4ccc(O)cc4CC[C@H]3[C@@H]1CC[C@@H]2O` [β-estradiol], the “Time after which release of β-estradiol from zeogrid is completed” value is 30 min.
